Experimental findings from patent publication US20180072997A1, “INHIBITORS OF HUMAN IMMUNODEFICIENCY VIRUS REPLICATION” (ViiV HEATHCARE UK (NO.5) LIMITED, priority 2015, published 2018) are described below.

Bounds are passed on as bounds.

Data set [1] relates to recombinant NL4-3 virus (Renilla luciferase in nef) in MT-2 cells. Put plainly: whole plant or invertebrate. Format: cell-based, HIV. Conditions: Renilla, NL43, MT-2 cells infected for 4-5 days with recombinant NL4-3 Renilla luciferase virus; luciferase activity. As for the experimental part:
HIV cell culture assay—MT-2 cells, 293T cells and the proviral DNA clone of NL4-3 virus were obtained from the NIH AIDS Research and Reference Reagent Program. MT-2 cells were propagated in RPMI 1640 media supplemented with 10% heat inactivated fetal bovine serum (FBS), 100 μg/ml penicillin G and up to 100 units/mL streptomycin. The 293T cells were propagated in DMEM media supplemented with 10% heat inactivated FBS, 100 μg/mL penicillin G and 100 μg/mL streptomycin. A recombinant NL4-3 proviral clone, in which a section of the nef gene was replaced with the Renilla luciferase gene, was used to make the reference virus used in these studies. The recombinant virus was prepared through transfection of the recombinant NL4-3 proviral clone into 293T cells using Transit-293 Transfection Reagent from Mirus Bio LLC (Madison, Wis.). Supernatent was harvested after 2-3 days and the amount of virus present was titered in MT-2 cells using luciferase enzyme activity as a marker by measuring luciferase enzyme activity. Luciferase was quantitated using the EnduRen Live Cell Substrate from Promega (Madison, Wis.). Antiviral activities of compounds toward the recombinant virus were quantified by measuring luciferase activity in MT-2 cells infected for 4-5 days with the recombinant virus in the presence of serial dilutions of the compound.
(Johnson V A, Byington R T. Infectivity Assay. In Techniques in HIV Research. ed. Aldovini A, Walker BD. 71-76. New York: Stockton Press.1990).

Data set [2] can be described thus: Compound cytotoxicity, XTT-based colorimetric assay. In kind it is cell-based. Conditions: human, uninfected MT2 cells, day 4, XTT. On the procedure: Compound cytotoxicity and the corresponding CC50 values were determined using the same protocol as described in the antiviral assay except that uninfected cells were used. Cytotoxicity was assessed on day 4 in uninfected MT2 cells by using a XTT (2,3-bis[2-Methoxy-4-nitro-5-sulfophenyl]-2H-tetrazolium-5-carboxyanilide inner salt)-based colorimetric assay (Sigma-Aldrich, St Louis, Mo.).
Background: Tetrazolium assays rely on reduction of a dye to a coloured formazan, in cell work by metabolically active cells.

By EC50 is commonly meant the concentration at which the effect is half-maximal. Usually CC50 stands for the concentration giving 50% cytotoxicity. Read a low CC50 as harm at low concentration. Take `COc1ccc(N(C)C(=O)[C@H](Cc2ccccc2)Nc2nc(N)nc(N[C@@H](Cc3ccccc3)C(=O)N(C)c3ccc(OC)cc3)n2)cc1` [Example 124]: the EC50 in data set [1] was found to be 3.8 µM. It took 31 µM to reach half-maximal cytotoxicity in data set [2] (CC50 at 4 days).
For the compound `CN(C(=O)[C@H](Cc1cc(F)cc(F)c1)NC(=O)CN1c2ccccc2N(CC(=O)N[C@@H](Cc2cc(F)cc(F)c2)C(=O)N(C)c2ccc3snnc3c2)S1(=O)=O)c1ccc2snnc2c1` [Example 178], the EC50 in data set [1] worked out at 0.02 µM. Moreover, the CC50 at 4 days in data set [2] is not below 100 µM.
For `COc1ccc(N(C)C(=O)[C@H](Cc2ccccc2)NC(=O)NS(=O)(=O)N[C@@H](Cc2ccccc2)C(=O)N(C)c2cc(OC)c(OC)c(OC)c2)cc1` [Example 17] the same measures were 12.2 µM and 15.9 µM.
For `C=CCN(C(=O)[C@H](Cc1cc(F)cc(F)c1)NC(=O)c1ccncc1C(=O)N[C@@H](Cc1cc(F)cc(F)c1)C(=O)N(CC=C)c1ccc(OC)cc1)c1ccc(OC)cc1` [Example 211] the same measures were 3.92 µM and 14 µM.
Take `CN(C(=O)[C@H](Cc1cc(F)cc(F)c1)NS(=O)(=O)CS(=O)(=O)N[C@@H](Cc1cc(F)cc(F)c1)C(=O)N(C)c1ccc2scnc2c1)c1ccc2scnc2c1` [Example 202]: the EC50 in data set [1] came out at 0.08 µM. In data set [2], the CC50 at 4 days is not below 100 µM.
For `COc1ccc(N(C)C(=O)[C@H](Cc2cc(F)cc(F)c2)NC(=O)Cn2c(=O)n(CC(=O)N[C@@H](Cc3cc(F)cc(F)c3)C(=O)N(C)c3ccc(OC)cc3)c3ccccc32)cc1` [Example 69] the same measures were 0.02 µM and 11.8 µM.
`CN(C(=O)[C@H](Cc1cc(F)cc(F)c1)NC(=O)NS(=O)(=O)N[C@@H](Cc1cc(F)cc(F)c1)C(=O)N(C)c1cnc2scnc2c1)c1cnc2scnc2c1` [Example 226]: the EC50 in data set [1] was determined as 8.92 µM. This compound also came in with a CC50 at 4 days in data set [2] not below 100 µM.
For `CN(C(=O)[C@H](Cc1ccccc1)NC(=O)NS(=O)(=O)N[C@@H](Cc1ccccc1)C(=O)N(C)c1ccccc1)c1ccccc1` [Example 85] the same measures were 0.97 µM and not below 100 µM.
With `CN(C(=O)[C@H](Cc1cc(F)cc(F)c1)NC(=O)NS(=O)(=O)N[C@@H](Cc1cc(F)cc(F)c1)C(=O)N(C)c1ccc(C2CC2)cc1)c1ccc(C2CC2)cc1` [Example 198], the EC50 in data set [1] is 0.01 µM. The compound further registered a CC50 at 4 days in data set [2] of 12.5 µM.
For `Cc1ccc(N(C)C(=O)[C@H](Cc2cc(F)cc(F)c2)NC(=O)CN2c3ccccc3N(CC(=O)N[C@@H](Cc3cc(F)cc(F)c3)C(=O)N(C)c3ccc(C)nc3)S2(=O)=O)cn1` [Example 195] the same measures were 0.02 µM and 54 µM.
The corresponding values for `CN(C(=O)[C@H](Cc1cc(F)cc(F)c1)NC(=O)NS(=O)(=O)N[C@@H](Cc1cc(F)cc(F)c1)C(=O)N(C)c1ccc2c(c1)ncn2C)c1ccc2c(c1)ncn2C` [Example 186] are 6.15 µM and not below 100 µM.
The corresponding values for `COc1ccc(N(C)C(=O)[C@H](Cc2ccccc2)NC(=O)c2ccnc(C(=O)N[C@@H](Cc3ccccc3)C(=O)N(C)c3ccc(OC)cc3)c2)cc1` [Example 105] are 0.68 µM and 3.1 µM.
On to `COc1ccc(N(C)C(=O)[C@H](Cc2ccccc2)NC(=O)c2cncc(C(=O)N[C@@H](Cc3ccccc3)C(=O)N(C)c3ccc(OC)cc3)c2)cc1` [Example 99], for which the EC50 in data set [1] worked out at 0.02 µM. The same compound gave a CC50 at 4 days in data set [2] of 1.8 µM.
The corresponding values for `COc1ccc(N(C)C(=O)[C@H](Cc2ccccc2)NC(=O)c2cc(C(=O)N[C@@H](Cc3ccccc3)C(=O)N(C)c3ccc(OC)cc3)[nH]n2)cc1` [Example 57] are 1.58 µM and 3.5 µM.
In the case of `CN(C(=O)[C@H](Cc1cc(F)cc(F)c1)NC(=O)NS(=O)(=O)N[C@@H](Cc1cc(F)cc(F)c1)C(=O)N(C)c1ccc(C2CC2)nc1)c1ccc(C2CC2)nc1` [Example 181], the EC50 in data set [1] stood at 0.02 µM. In data set [2], this compound yielded a CC50 at 4 days of 85.8 µM.
In the case of `COc1ccc(N(C)C(=O)[C@H](Cc2cc(F)cc(F)c2)NC(=O)NS(=O)(=O)N[C@@H](Cc2ccccc2)C(=O)N(C)c2ccc(OC)cc2)cc1` [Example 45], the EC50 in data set [1] was found to be 0.01 µM. The same compound showed a CC50 at 4 days in data set [2] of 38.8 µM.
With `CCc1ccc(N(C)C(=O)[C@H](Cc2cc(F)cc(F)c2)NC(=O)NS(=O)(=O)N[C@@H](Cc2cc(F)cc(F)c2)C(=O)N(C)c2ccc(CC)nc2)cn1` [Example 180], the EC50 in data set [1] came out at 0.03 µM. Moreover, the CC50 at 4 days in data set [2] was 80.1 µM.
The corresponding values for `COc1ccc(N(C)C(=O)[C@H](Cc2cc(F)cc(F)c2)NC(=O)COc2nc3ccccc3n(CC(=O)N[C@@H](Cc3cc(F)cc(F)c3)C(=O)N(C)c3ccc(OC)cc3)c2=O)cc1` [Example 96] are 0.12 µM and not below 50 µM.
Take `COc1ccc(N(C)C(=O)[C@H](Cc2ccccc2)NC(=O)/C=C/C(=O)N[C@@H](Cc2ccccc2)C(=O)N(C)c2ccc(OC)cc2)cc1` [Example 31]: in data set [1], the EC50 came to 0.78 µM. This compound also yielded a 50% cytotoxic concentration (CC50) at 4 days in data set [2] of 3.5 µM.
Regarding `COc1ccc(N(C)C(=O)[C@H](Cc2ccccc2)NC(=O)c2ccc(C(=O)N[C@@H](Cc3ccccc3)C(=O)N(C)c3ccc(OC)cc3)cc2)cc1` [Example 25], in data set [1], the EC50 was 1.13 µM. Further, in data set [2], the midpoint of cytotoxicity, the CC50 at 4 days, lay at 3.7 µM.
For `C=CCCN(C(=O)[C@H](Cc1cc(F)cc(F)c1)NS(=O)(=O)NC(=O)N[C@@H](Cc1cc(F)cc(F)c1)C(=O)N(CC=C)c1ccc(OC)cc1)c1ccc(OC)cc1` [Example 123] the same measures were 0.38 µM and 19.2 µM.
For `CN(C(=O)[C@H](Cc1cc(F)cc(F)c1)NC(=O)NS(=O)(=O)N[C@@H](Cc1cc(F)cc(F)c1)C(=O)N(C)c1ccccc1)c1ccccc1` [Example 86] the same measures were 0.09 µM and 24.5 µM.
For `COc1ccc(N(C)C(=O)[C@H](Cc2ccccc2)NC(=O)NS(=O)(=O)N[C@@H](Cc2ccccc2)C(=O)N(C)c2ccc(OC)cc2)cc1` [Example 2] the same measures were 0.03 µM and 77.9 µM.
As to `COc1ccc(N(C)C(=O)[C@H](Cc2cc(F)cc(F)c2)NC(=O)NS(=O)(=O)N[C@@H](Cc2cc(F)cc(F)c2)C(=O)N(C)c2ccc(OC)c(F)c2)cc1F` [Example 233], in data set [1], the half-maximal effective concentration (EC50) is 0.03 µM. In addition, in data set [2], the CC50 at 4 days amounted to 35.8 µM.
For `COc1ccc(N(C)C(=O)[C@H](Cc2cc(F)cc(F)c2)NC(=O)NS(=O)(=O)N[C@@H](Cc2cc(F)cc(F)c2)C(=O)N(C)c2ccc(OC)cc2)cc1` [Example 20] the same measures were 0.01 µM and 35 µM.
As to `COc1ccc(N(C)C(=O)[C@H](Cc2cc(F)cc(F)c2)NC(=O)Cn2c(=O)n(CC(=O)N[C@@H](Cc3cc(F)cc(F)c3)C(=O)N(C)c3ccc(OC)cc3)c3c(Cl)cccc32)cc1` [Example 74], the EC50 in data set [1] stood at 0.03 µM. In data set [2], this compound yielded a CC50 at 4 days of 11.3 µM.
The corresponding values for `COc1ccc(N(C)C(=O)[C@H](Cc2ccccc2)NC(=O)c2cc(C(=O)N[C@@H](Cc3ccccc3)C(=O)N(C)c3ccc(OC)cc3)n(C)n2)cc1` [Example 115] are 2.13 µM and not below 100 µM.
For `CN(C(=O)[C@H](Cc1ccccc1)NC(=O)c1cccc(C(=O)N[C@@H](Cc2ccccc2)C(=O)N(C)c2ccc3scnc3c2)c1)c1ccc2scnc2c1` [Example 50], the EC50 in data set [1] amounted to 0.04 µM. In addition, in data set [2], half-maximal cytotoxicity (CC50 at 4 days) was put at 3.7 µM.
The corresponding values for `COc1ccc(N(C)C(=O)[C@H](Cc2ccccc2)NS(=O)(=O)NC(=O)N[C@@H](Cc2ccccc2)C(=O)N(C)c2ccc3scnc3c2)cc1` [Example 35] are 0.03 µM and 99.9 µM.
The corresponding values for `COc1ccc(N(C)C(=O)[C@H](Cc2ccccc2)NC(=O)N[C@@H](Cc2ccccc2)C(=O)N(C)c2ccc(OC)cc2)cc1` [Example 1] are 2.86 µM and 23.1 µM.
For `CN(C(=O)[C@H](Cc1ccccc1)NC(=O)CS(=O)(=O)N[C@@H](Cc1ccccc1)C(=O)N(C)c1ccc2scnc2c1)c1ccc2scnc2c1` [Example 65] the same measures were 0.32 µM and 34.6 µM.
With `COc1ccc(N(C)C(=O)[C@H](Cc2ccccc2)NC(=O)Cc2cn(CC(=O)N[C@@H](Cc3ccccc3)C(=O)N(C)c3ccc(OC)cc3)c3ccccc23)cc1` [Example 61], in data set [1], the EC50 amounted to 0.61 µM. In addition, the CC50 at 4 days in data set [2] was found to be 32.6 µM.
Take `CN(C(=O)[C@H](Cc1cc(F)cc(F)c1)NC(=O)CN1c2ccccc2N(CC(=O)N[C@@H](Cc2cc(F)cc(F)c2)C(=O)N(C)c2ccc3scnc3c2)S1(=O)=O)c1ccc2scnc2c1` [Example 118]: the CC50 at 4 days in data set [2] was not below 100 µM.
In data set [2], `CN(C(=O)[C@H](Cc1cc(F)cc(F)c1)NC(=O)c1c(F)c(F)c(F)c(C(=O)N[C@@H](Cc2cc(F)cc(F)c2)C(=O)N(C)c2ccc3scnc3c2)c1F)c1ccc2scnc2c1` [Example 81] showed a CC50 at 4 days of 2.8 µM. This counts as single-digit micromolar.
Compound `CCc1ccc(N(C)C(=O)[C@H](Cc2cc(F)cc(F)c2)NC(=O)NS(=O)(=O)N[C@@H](Cc2cc(F)cc(F)c2)C(=O)N(C)c2ccc(CC)cc2)cc1` [Example 173] registered a CC50 at 4 days in data set [2] of 25.5 µM.
